Reference: PubChem BioAssay AID330 (DTP/NCI, 2004)
Where “and” joins values, the source holds several entries; their conditions need not be identical. Equal entries are not always repeated. Toxic doses and inconclusive results are not listed.

Test system: P388 leukemia ip, CD2F1 mice, survival T/C
Assay: NCI In Vivo Anticancer Drug Screen. Data for tumor model P388 Leukemia (intraperitoneal) in CD2F1 (CDF1) mice
Settings: endpoint: median survival time, higher = longer survival
Procedure, shortened: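 Mice carrying the transplanted tumor received test compound or vehicle. Survival was recorded in each group, and the value is the treated-group measurement divided by that of the vehicle-treated control group.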

[1] = dose: 60.0 mg/kg/injection, schedule: Q01DX005 (ip), vehicle: saline with Tween-80
[2] = dose: 120.0 mg/kg/injection, schedule: Q01DX005 (ip), vehicle: saline with Tween-80
[3] = dose: 240.0 mg/kg/injection, schedule: Q01DX005 (ip), vehicle: saline with Tween-80
[4] = dose: 50.0 mg/kg/injection, schedule: Q01DX009 (ip), vehicle: saline
[5] = dose: 100.0 mg/kg/injection, schedule: Q01DX009 (ip), vehicle: saline

NC(CCCC(N)C(=O)c1ccccc1)C(=O)c1ccccc1 (configuration not stated)
T/C [1]: 92 % of control
T/C [2]: 91 % of control
T/C [3]: 92 % of control

Nc1nc(N)c2nc(NCc3ccc(C(=O)NC(CCC(=O)O)C(=O)O)cc3)cnc2n1 (configuration not stated)
T/C [4]: 100 % of control
T/C [5]: 109 % of control
T/C (dose: 200.0 mg/kg/injection, schedule: Q01DX009 (ip), vehicle: saline): 113 % of control
T/C (dose: 400.0 mg/kg/injection, schedule: Q01DX009 (ip), vehicle: saline): 95 % of control

COC(=O)C1=C/N(C)CCC/C(C(N)=O)=C\1
T/C (dose: 50.0 mg/kg/injection, schedule: Q01DX005 (ip), vehicle: Klucel (hydroxypropylcellulose) (HPC)): 89 % of control
T/C (dose: 100.0 mg/kg/injection, schedule: Q01DX005 (ip), vehicle: Klucel (hydroxypropylcellulose) (HPC)): 102 % of control
T/C (dose: 200.0 mg/kg/injection, schedule: Q01DX005 (ip), vehicle: Klucel (hydroxypropylcellulose) (HPC)): 94 % of control

CC(=O)[O][Hg][c]1cc(-c2ccc(N=Nc3c(S(=O)(=O)O)cc4cccc(N)c4c3O)cc2)ccc1N=Nc1c(S(=O)(=O)O)cc2cccc(N)c2c1O
T/C (dose: 3.13 mg/kg/injection, schedule: Q04DX003 (ip), vehicle: saline with Tween-80): 90 % of control
T/C (dose: 6.25 mg/kg/injection, schedule: Q04DX003 (ip), vehicle: saline with Tween-80): 95 % of control

CN(C)c1ccc(/C=C/c2cc[n+](C)c(/C=C/c3ccc(N(C)C)cc3)c2)cc1
T/C (dose: 0.78 mg/kg/injection, schedule: Q01DX005 (ip), vehicle: saline): 115 % of control
T/C (dose: 1.56 mg/kg/injection, schedule: Q01DX005 (ip), vehicle: saline): 119 % of control

OCC1OC(n2cnc3c(NO)ncnc32)C(O)C1O (configuration not stated)
T/C (dose: 12.5 mg/kg/injection, schedule: Q01DX009 (ip), vehicle: Klucel (hydroxypropylcellulose) (HPC)): 102 % of control
T/C (dose: 25.0 mg/kg/injection, schedule: Q01DX009 (ip), vehicle: Klucel (hydroxypropylcellulose) (HPC)): 100 % of control
T/C (dose: 50.0 mg/kg/injection, schedule: Q01DX009 (ip), vehicle: Klucel (hydroxypropylcellulose) (HPC)): 99 % of control and 109 % of control and 110 % of control
T/C (dose: 100.0 mg/kg/injection, schedule: Q01DX009 (ip), vehicle: Klucel (hydroxypropylcellulose) (HPC)): 100 % of control and 107 % of control and 113 % of control
T/C (dose: 200.0 mg/kg/injection, schedule: Q01DX009 (ip), vehicle: Klucel (hydroxypropylcellulose) (HPC)): 103 % of control and 113 % of control and 97 % of control
T/C (dose: 400.0 mg/kg/injection, schedule: Q01DX009 (ip), vehicle: Klucel (hydroxypropylcellulose) (HPC)): 102 % of control and 119 % of control

O=C(Nc1cc(-c2ccccc2)[nH]n1)c1ccccc1Cl
T/C [1]: 100 % of control
T/C [2]: 93 % of control
T/C [3]: 93 % of control

COC(=O)C(C)(OC)OC
T/C (dose: 100.0 mg/kg/injection, schedule: Q04DX003 (ip), vehicle: saline): 100 % of control
T/C (dose: 200.0 mg/kg/injection, schedule: Q04DX003 (ip), vehicle: saline): 109 % of control
T/C (dose: 400.0 mg/kg/injection, schedule: Q04DX003 (ip), vehicle: saline): 100 % of control

O=NN(CCCl)C(=O)NCCO
T/C (dose: 0.78 mg/kg/injection, schedule: Q01DX005 (ip), vehicle: water): 96 % of control
T/C (dose: 3.12 mg/kg/injection, schedule: Q01DX005 (ip), vehicle: water): 104 % of control
T/C (dose: 3.13 mg/kg/injection, schedule: Q01DX005 (ip), vehicle: water): 250 % of control
T/C (dose: 12.5 mg/kg/injection, schedule: Q01DX005 (ip), vehicle: water): 116 % of control
T/C (dose: 25.0 mg/kg/injection, schedule: Q01DX005 (ip), vehicle: water): 150 % of control
T/C (dose: 50.0 mg/kg/injection, schedule: Q01DX005 (ip), vehicle: water): 218 % of control

O=C(NC(=S)c1ccc(Br)cc1)Nc1ccccc1
T/C (dose: 2.5 mg/kg/injection, schedule: Q01DX009 (ip), vehicle: saline with Tween-80): 90 % of control
T/C (dose: 5.0 mg/kg/injection, schedule: Q01DX009 (ip), vehicle: saline with Tween-80): 103 % of control
T/C (dose: 10.0 mg/kg/injection, schedule: Q01DX009 (ip), vehicle: saline with Tween-80): 88 % of control

O=C(O)C12CC3CC(CC(C3)C1)C2.O=C(O)C12CC3CC(CC(C3)C1)C2.O=C(O)C12CC3CC(CC(C3)C1)C2.O=C(O)C12CC3CC(CC(C3)C1)C2.[Rh].[Rh]
T/C (dose: 12.5 mg/kg/injection, schedule: Q01DX009 (ip), vehicle: saline): 94 % of control
T/C (dose: 25.0 mg/kg/injection, schedule: Q01DX009 (ip), vehicle: saline): 91 % of control and 93 % of control
T/C [4]: 100 % of control and 88 % of control
T/C (dose: 50.0 mg/kg/injection, schedule: Q01DX009 (ip), vehicle: suspension in saline): 101 % of control
T/C [5]: 91 % of control
T/C (dose: 100.0 mg/kg/injection, schedule: Q01DX009 (ip), vehicle: suspension in saline): 120 % of control
T/C (dose: 200.0 mg/kg/injection, schedule: Q01DX009 (ip), vehicle: suspension in saline): 108 % of control
